Data reported in ChEMBL document CHEMBL3507680, “University of Dundee, Gates Library screen for HepG2 cell viability”.

Test: Human HepG2 cell viability assay in 384 well format
Assay type: toxicity, cell-based
Parameters: dose 125 nL, time 70.5 hour; concentration not given beside the values
Conditions: HepG2 cells, read-out: Inhibition

Row | SMILES | cytotoxicity at 70.5 h
1 | Cc1noc(C)c1CCC(=O)N1CCCN(C)CC1 | -3.68%
2 | CC(C(=O)NCc1ccnc(N2CCN(C)CC2)c1)S(C)(=O)=O (stereo not drawn) | 22.3%
3 | CN(Cc1ccsc1)C(=O)c1ccc2c(c1)NC(=O)CO2 | -7.5%
4 | CC(C(=O)NCc1ccnc(N2CCCC2)c1)n1cccn1 (stereo not drawn) | -10.3%
5 | CC(NC(=O)CCc1ccsc1)c1ccc2c(c1)NC(=O)CO2 (stereo not drawn) | -6.31%
6 | Cc1noc(C)c1CCC(=O)N1CCN(Cc2cscn2)CC1 | -2.32%
7 | Cc1noc(C)c1CC(=O)N1CCN(Cc2cscn2)CC1 | -1.94%
8 | Cc1csc(N2CCN(C(=O)C3(C#N)CCCC3)CC2)n1 | -5.35%
9 | Cc1cc2n(n1)CC(CNCc1ccc(N3CCOCC3)nc1)CN2 (stereo not drawn) | -9.07%
10 | Cc1ccc(CNCC2CNc3cc(C)nn3C2)cn1 (stereo not drawn) | 15.9%
11 | N#CC1(C(=O)N2CCCN(c3nccs3)CC2)CCCCC1 | -4.97%
12 | CC(C(=O)NCc1ccnc(N2CCOCC2)c1)n1cccn1 (stereo not drawn) | -10.1%
13 | CC(NC(=O)c1ccsc1)c1ccc2c(c1)NC(=O)CO2 (stereo not drawn) | -3.38%
14 | Cc1noc(C)c1CCC(=O)N1CCCN(CC(N)=O)CC1 | -16.1%
15 | COCCOc1ccc(CNCC2CNc3cc(C)nn3C2)cn1 (stereo not drawn) | -4.87%
16 | CCOc1ccccc1C(CC(=O)Nc1ncc(C)s1)NC(C)=O (stereo not drawn) | 14.6%
17 | CCOc1ccccc1C(CC(=O)Nc1ccncc1)NC(C)=O (stereo not drawn) | -7.74%
18 | COC(=O)c1cc(C(=O)N2CCCCC2C)n(-c2ccccc2)n1 (stereo not drawn) | 19.1%
19 | Cc1cc(C)n(CC2CCCCN2C(=O)CCc2ccncc2)n1 (stereo not drawn) | -0.893%
20 | Cc1cnn(CC2CN(Cc3nc(-c4ccsc4)no3)CCO2)c1 (stereo not drawn) | -14.2%
21 | Cc1cnn(CCNCc2nnc(Cc3ccccc3)o2)c1 | -1.13%
22 | Fc1ccccc1-c1nc(CNCCn2cccn2)cs1 | -3.88%
23 | Cc1ccc(-c2nc(CNC(C)Cn3cccn3)cs2)o1 (stereo not drawn) | -3.26%
24 | Cc1cc(C)c(CNC(=O)c2ccc3c(c2)CCC3)c(=O)[nH]1 | 4.13%

Row | SMILES | cytotoxicity at 70.5 h
25 | CC(C)Oc1ncccc1CNC(=O)N1CCSCC1 | -2.87%
26 | O=C(Cc1ccc2c(c1)CCO2)N1CCN(c2nccs2)CC1 | -2.11%
27 | Cn1ccnc1CN1CCN(CCOc2cccc(C#N)c2)CC1 | -0.0786%
28 | CC1CN(CCOc2cccc(C#N)c2)CCN1Cc1nccn1C (stereo not drawn) | -3.4%
29 | Cc1nc(C2CCCN(C(=O)Cn3ccccc3=O)C2)sc1C (stereo not drawn) | -2.49%
30 | Cc1csc(C2CCCN(C(=O)Cn3ccccc3=O)C2)n1 (stereo not drawn) | -3.71%
31 | Cc1nc(C2CCCN2C(=O)c2csc3c2CCCC3)no1 (stereo not drawn) | -1.72%
32 | Cc1nc(C2CCCN2CCC(=O)N2CCc3ccccc32)no1 (stereo not drawn) | 4.14%
33 | Cc1cc(C2CCCN2C(=O)c2cc3c(s2)CCC3)no1 (stereo not drawn) | -0.925%
34 | CCc1nc(CN2CCCC(NCc3nc4ccccc4o3)C2)no1 (stereo not drawn) | -1.56%
35 | Cn1cc(C2CCCN2C(=O)CCc2cnn(-c3ccccc3)c2)cn1 (stereo not drawn) | -3.27%
36 | CC(C)c1noc(CCCC(=O)N2CCN(Cc3cccnc3)CC2)n1 | -13%
37 | CC(Cn1cccn1)NC(=O)NCCc1cccnc1 (stereo not drawn) | -8.85%
38 | Cc1csc(CCNC(=O)NC(C)Cn2cccn2)n1 (stereo not drawn) | 19%
39 | Cc1cccc(CN(C(=O)NCc2ccccn2)C2CC2)c1 | -8.28%
40 | CC(Cn1cccn1)NC(=O)NCCc1ccsc1 (stereo not drawn) | 15.4%
41 | CS(=O)(=O)c1ccc(CNC(=O)Nc2cn[nH]c2)cc1 | -12.4%
42 | Cn1cc(NS(=O)(=O)c2ccc3c(c2)CCCC3)ccc1=O | 22.1%
43 | CCOc1ccc2c(c1)CN(Cc1nc3c(cnn3C)c(=O)[nH]1)CC2 | -4.82%
44 | Cc1cc(C2CCCN2Cc2nc3c(cnn3C)c(=O)[nH]2)on1 (stereo not drawn) | -8.83%
45 | COC(=O)c1ccc(N2CCN(C(=O)c3cnc(C)cn3)C(C)C2)cc1 (stereo not drawn) | -11%
46 | COC(=O)c1ccc(N2CCN(C(=O)c3cccnc3)C(C)C2)cc1 (stereo not drawn) | -4.39%
47 | Cc1ccccc1C1CCCN1Cc1nc2c(cnn2C)c(=O)[nH]1 (stereo not drawn) | -9.08%
48 | CNS(=O)(=O)c1ccc(CNC(=O)Nc2cn[nH]c2)cc1 | -5.63%

Row | SMILES | cytotoxicity at 70.5 h
49 | Cn1ncc2c(=O)[nH]c(CN3CCCC3c3ccsc3)nc21 (stereo not drawn) | -7.44%
50 | CCn1cnnc1C1CCN(C(=O)c2cc(C)c(C)s2)CC1 | 15.5%
51 | CCn1cnnc1C1CCN(C(=O)c2cc3c(s2)CCCC3)CC1 | -9.56%
52 | COC(=O)c1ccc(N2CCN(C(=O)c3cc(C)no3)C(C)C2)cc1 (stereo not drawn) | -12%
53 | Cc1nc(CN2CCCC(NCc3ccc(C(N)=O)cc3)C2)no1 (stereo not drawn) | -4.31%
54 | Cc1cc(NC(=O)CNC2CCc3ncnn3C2)no1 (stereo not drawn) | -18.6%
55 | CCc1nc2n(n1)CC(NCCC(=O)Nc1cc(C)on1)CC2 (stereo not drawn) | -6.35%
56 | Cc1nc2n(n1)CC(NCCC(=O)Nc1cc(C)on1)CC2 (stereo not drawn) | -6.62%
57 | CN(C)c1cc2c(nn1)CCN(C(=O)C1CCCc3ccccc31)C2 (stereo not drawn) | -8.02%
58 | COc1cc(CNC(=O)N(Cc2ccc(F)cc2F)C2CC2)ccn1 | -12.9%
59 | CNS(=O)(=O)c1ccc(C(=O)NCCNc2ncccn2)cc1 | -12.3%
60 | O=C(Cc1ccc2c(c1)CCCC2)NCCc1ccccn1 | -5.18%
61 | COc1cc(CCC(=O)NC2CC2)ccc1OCC(F)(F)F | -15.3%
62 | Cc1cccc(CN(C)Cc2nc3c(cnn3C)c(=O)[nH]2)c1 | -14.2%
63 | Cc1ccc(CNC(=O)CN2C=Nc3ccccc3S2(=O)=O)s1 | -11.3%
64 | CC(C)CNC(=O)CN1C=Nc2ccccc2S1(=O)=O | 20.2%
65 | CCc1c(C(=O)N2CCCN(C(C)=O)CC2)cnn1C(C)(C)C | -0.109%
66 | Cc1cccc(-n2ncc(C(=O)N3CCn4c(C)nnc4C3)c2C)c1 | -10.4%
67 | CCOc1ccnc(N2CCN(C(=O)c3cccc(C#N)c3)CC2)n1 | -6.91%
68 | CC(C)c1nc(C(=O)NCCn2ccnc2)nn1-c1cccc(F)c1 | -14.8%
69 | Cn1cnc2c1CCN(Cc1noc(-c3ccccc3)n1)C2 | -6.44%
70 | Cc1nn(C)c(C)c1C1CCCN1C(=O)CCNc1ncccn1 (stereo not drawn) | -4.27%
71 | CC(=O)NCc1ccc(C(=O)N2CCCC2c2cnn(C)c2)o1 (stereo not drawn) | -13.1%
72 | CCc1ncncc1C(=O)N1CCN(Cc2ccco2)CC1 | 10.8%

Row | SMILES | cytotoxicity at 70.5 h
73 | Cc1ccc(CC(=O)N2CSCC2C(=O)N(C)Cc2ccco2)o1 (stereo not drawn) | -12.2%
74 | CN(Cc1ccco1)C(=O)C1CSCN1C(=O)c1cccnc1 (stereo not drawn) | -15.1%
75 | Cc1cnn(CCNCCCOc2ccccc2)c1 | -7.1%
76 | COc1cc(CNC2CCc3nc(C)nn3C2)cc2c1OCCO2 (stereo not drawn) | -9%
77 | Cc1cc(CN2CCN(CCOc3cccc(C#N)c3)CC2)no1 | 5.03%
78 | CCc1nc(C)c(C(=O)NCCNc2cnccn2)s1 | 3.09%
79 | Cc1nn(C)c(N2CCOCC2)c1CNC(c1cccs1)C(C)C (stereo not drawn) | 6.88%
80 | CC(NC(=O)CSCC#N)c1ccccc1 (stereo not drawn) | 6.84%
81 | CCc1nc(CN2CCOC(Cn3nc(C)nc3C)C2)no1 (stereo not drawn) | 3.11%
82 | O=C(NCC1CCOC1)N1CCN(Cc2ccc3c(c2)CCO3)CC1 (stereo not drawn) | -4.97%
83 | O=C(CCNC(=O)C1CCCC1)NCc1ccccc1Cn1cncn1 | -7.76%
84 | CC(NC(=O)c1ccc2c(c1)OCC(=O)N2)c1ccccc1F (stereo not drawn) | 0.146%
85 | Cc1nc(COc2cccc(C#N)c2)no1 | 2.53%
86 | CN(Cc1ccsc1)C(=O)Nc1cccnc1N1CCCC1 | 23%
87 | CCc1nc(C)c(C(=O)NCCNc2ncccn2)s1 | -6.37%
88 | CC(C)Oc1cccc(CNC(=O)NC(C)(C(=O)O)c2ccco2)c1 (stereo not drawn) | -0.448%
89 | Cc1ccc(C)c(CNC(=O)NC(C)(C(=O)O)c2ccco2)c1 (stereo not drawn) | 2.89%
90 | Cc1nccn1C1CCCN(C(=O)c2ccc(N3CCCC3)nn2)C1 (stereo not drawn) | -4.33%
91 | CN(Cc1cnn(-c2ccccc2)n1)CC1CCCN1c1cccnn1 (stereo not drawn) | 4.15%
92 | CC(=O)Nc1nc(C(=O)N2CCCC(n3nc(C)cc3C)C2)cs1 (stereo not drawn) | 31.5%
93 | Cc1nc(CN2CCCC2c2c(C)nn(C)c2Cl)no1 (stereo not drawn) | -1.31%
94 | CC(C)c1n[nH]c(C2CN(C(=O)C3=COCC3)CCO2)n1 (stereo not drawn) | -3.87%
95 | CC(=O)Nc1nc(C(=O)N2CCCC(c3cc(C)[nH]n3)C2)cs1 (stereo not drawn) | -0.899%
96 | Cc1noc(NC(=O)c2ccc(Br)s2)n1 | 24.3%

Row | SMILES | cytotoxicity at 70.5 h
97 | O=C(C1COCCO1)N1CCN(Cc2ccc3c(c2)CCO3)CC1 (stereo not drawn) | 1.06%
98 | Cn1ccnc1CN1CCN(CCOc2ccccc2C#N)CC1 | 23.6%
99 | Cc1cnc2c(S(=O)(=O)NCC3CCS(=O)(=O)C3)cccc2c1 (stereo not drawn) | 51.3%
100 | O=C(NCCc1ccc(Cl)s1)NCc1nnc2n1CCC2 | 8.18%
101 | O=C(NCCN1CCc2ccccc2C1)c1scnc1Cl | -1.52%
102 | CN(CCCOc1ccc(F)cc1)Cc1nc2c(cnn2C)c(=O)[nH]1 | 4.27%
103 | COCCCN(C)Cc1nc2c(cnn2C)c(=O)[nH]1 | 42.4%
104 | COc1c(CNC2CCN(c3ncccn3)CC2)c(C(C)C)nn1C | 2.8%
105 | COc1c(CNC2CCN(C(=O)C3CC3)CC2)c(C(C)C)nn1C | 0.393%
106 | CCN(CC1CCOC1)C(=O)c1ccccc1NS(=O)(=O)CC (stereo not drawn) | -3.45%
107 | CC(=O)N1CCCN(C(=O)c2cnc3n[nH]c(C)c3c2)CC1 | 11.1%
108 | COC(=O)c1ccc(N2CCN(CCC#N)C(C)C2)cc1 (stereo not drawn) | 11.4%
109 | COc1c(CNC2CCN(C(C)(C)C)CC2)c(C(C)C)nn1C | 3.99%
110 | Cc1ncc2c(n1)CN(CC(=O)Nc1ccncc1)CC2 | 1.41%
111 | Cn1cc(CN2CCCN(C(=O)c3ccc4c(c3)COC4)CC2)cn1 | -4.36%
112 | Cc1nccn1C1CCCN(C(=O)c2ccc(N(C)C)nc2)C1 (stereo not drawn) | -7.86%
113 | O=C(O)c1cc(S(=O)(=O)Nc2cc(F)ccc2F)cc2c1OCCO2 | -3.33%
114 | CCc1ncc2c(n1)CN(Cc1nc(-c3ccccn3)no1)CC2 | 33.7%
115 | CC(C)c1noc(C(C)N2CCN(Cc3ccsc3)CC2)n1 (stereo not drawn) | -5.78%
116 | CCN(CC1CCOC1)C(=O)c1cccnc1N1CCOCC1 (stereo not drawn) | 0.841%
117 | CC(=O)N1CCCN(C(=O)NCc2ccccn2)CC1 | 3.62%
118 | CC(C)c1nn(C)c(Cl)c1CNCc1ccc2c(c1)OCCO2 | 3.82%
